Among the data in patent publication US7557136B2, “Pyrrolidine derivatives as oxytocin antagonists” (Laboratoires Serono SA, priority 2003, dated 2009) are Ki values, retold here.

In the test the target is T1, human Oxytocin (hOT) receptor (Homo sapiens, UniProt P30559).
T1 construct: expressed in transfected cells; host or cells: HEK293EBNA (membranes)
T1 sequence (P30559 1-389): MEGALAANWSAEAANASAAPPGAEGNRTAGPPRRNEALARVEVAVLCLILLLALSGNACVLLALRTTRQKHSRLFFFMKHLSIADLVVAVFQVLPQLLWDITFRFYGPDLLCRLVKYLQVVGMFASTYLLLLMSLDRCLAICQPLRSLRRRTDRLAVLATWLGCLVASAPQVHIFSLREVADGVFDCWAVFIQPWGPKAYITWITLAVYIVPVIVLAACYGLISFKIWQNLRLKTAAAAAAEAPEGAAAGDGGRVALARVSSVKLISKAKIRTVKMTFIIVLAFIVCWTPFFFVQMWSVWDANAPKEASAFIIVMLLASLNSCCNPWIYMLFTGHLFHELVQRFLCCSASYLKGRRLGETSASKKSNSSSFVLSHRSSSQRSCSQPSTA
Description: In vitro competition binding assay on hOT receptor with scintillation proximity assay ([125I]-OVTA). Particulars: membranes from HEK293EBNA cells expressing the hOT receptor; 0.2 nM [125I]-OVTA; SPA; read-out: Binding Affinity hOT-R (Ki [nM]). The protocol: The compounds according to formula (I) may be subjected to the following assays: • a) In Vitro Competition Binding Assay on hOT Receptor with Scintillation Proximity Assay (11).
This assay allows to determine the affinity of the test compounds for the human Oxytocin (hOT) receptor. Membranes from HEK293EBNA (cells expressing the hOT receptor) were suspended in buffer containing 50 mM Tris-HCl, pH 7.4, 5 mM MgCl2 and 0.1% BSA (w/v). The membranes (2-4 μg) were mixed with 0.1 mg SPA bead coated with wheat-germ aglutinin (WGA-PVT-Polyethylene Imine beads from Amersham) and 0.2 nM of the radiolabelled [^125I]-OVTA (OVTA being Ornithin Vasoactive, an analogue of OT for competitive binding experiments). Non-specific binding was determined in the presence of 1 μM Oxytocin. The total assay volume was 100 μl. The plates (Corning® NBS plate) were incubated at room temperature for 30 min and counted on a Mibrobeta® plate scintillation counter. Competitive binding was performed in presence of compounds of formula (I) at the following concentrations: 30 μM, 10 μM, 1 μM, 300 nM, 100 nM, 10 nM, 1 nM, 100 pM, 10 pM. The competitive binding data were analysed using the iterative, nonlinear, curve-fitting program, “Prism” (GraphPad Software, Inc).
The ability of pyrrolidine derivatives of formula (I) to inhibit the binding of ^125I-OVTA to the OT-receptor was assessed using the above described in vitro biological assay. Representative values for some example compounds are given in Table I where the binding affinity of test compounds from the above examples is expressed by the inhibition constant (Ki; nM). From these values, it can be derived that said test compounds according to formula (I) do show a significant binding to the oxytocin receptor.
Background: Scintillation proximity formats need no separation of bound from free tracer.
A word on the Ki: it is the equilibrium dissociation constant of an inhibitor or competing ligand from its target. `CON=C1CC(CC(=O)N2CCOCC2)N(C(=O)c2ccc(-c3ccccc3)cc2)C1` [Example 9, (3EZ,5S)-1-(biphenyl-4-ylcarbonyl-5-(2-morpholin-4yl-2-oxoethyl)pyrrolidin-3-one O-methyloxime]: the Ki is 142 nM. `CON=C1C[C@@H](CCC(=O)NC[C@@H](O)c2ccccc2)N(C(=O)c2ccc(-c3ccccc3)cc2)C1` [Example 6, 3-[(2R,4EZ)-1-(biphenyl-4-ylcarbonyl)-4-(methoxyimino)pyrrolidin-2-yl]-N-[(2S)-2-hydroxy-2-phenylethyl]propanamide]: the Ki was found to be 77 nM. `CON=C1C[C@@H](CC(=O)OC2CCCC2)N(C(=O)c2ccc(-c3ccccc3)cc2)C1` [Example 3, cyclopentyl [(2S,4EZ)-1-(biphenyl-4-ylcarbonyl)-4-(methoxyimino)pyrrolidin-2-yl]acetate]: the Ki was 46 nM.

In the case of `CON=C1C[C@@H](CC(=O)OC)N(C(=O)c2ccc(-c3ccccc3)cc2)C1` [Example 1, methyl [(2S,4EZ)-1-(biphenyl-4-ylcarbonyl)-4-(methoxyimino)pyrrolidin-2-yl]acetate], the inhibition constant (Ki) is 37 nM.

Turning to `CON=C1CC(CC(=O)NC[C@H](O)c2ccccc2)N(C(=O)c2ccc(-c3ccccc3)cc2)C1` (stereo partly drawn) [Example 5], the Ki stood at 67 nM.

On to `CON=C1CC(CCC(=O)OC)N(C(=O)c2ccc(-c3ccccc3)cc2)C1` [Example 2, methyl 3-[(2R,4EZ)-1-biphenyl-4-ylcarbonyl)-4-(methoxyimino)pyrrolidin-2-yl]propanoate], for which the Ki came to 144 nM.
